Some targets named below: PDGFRA (Homo sapiens, UniProt P16234); PIM3 (Homo sapiens, UniProt Q86V86); MET (Homo sapiens, UniProt P08581); PIK3CA(Q546K) (Homo sapiens, UniProt P42336, Q546K); PIKFYVE (Homo sapiens, UniProt Q9Y2I7); FGFR2 (Homo sapiens, UniProt P21802); CDK5 (Homo sapiens, UniProt Q00535); ERBB3 (Homo sapiens, UniProt P21860).
Test in all cases: biochemical
Common to all, as to design: DiscoveRx KINOMEscan active site-directed competition binding; percent of control kinase bound to immobilised ligand

The target of the next test is T1, MEK4 (Homo sapiens, UniProt P45985).
T1 construct: gene MAP2K4
T1 sequence (P45985 1-399): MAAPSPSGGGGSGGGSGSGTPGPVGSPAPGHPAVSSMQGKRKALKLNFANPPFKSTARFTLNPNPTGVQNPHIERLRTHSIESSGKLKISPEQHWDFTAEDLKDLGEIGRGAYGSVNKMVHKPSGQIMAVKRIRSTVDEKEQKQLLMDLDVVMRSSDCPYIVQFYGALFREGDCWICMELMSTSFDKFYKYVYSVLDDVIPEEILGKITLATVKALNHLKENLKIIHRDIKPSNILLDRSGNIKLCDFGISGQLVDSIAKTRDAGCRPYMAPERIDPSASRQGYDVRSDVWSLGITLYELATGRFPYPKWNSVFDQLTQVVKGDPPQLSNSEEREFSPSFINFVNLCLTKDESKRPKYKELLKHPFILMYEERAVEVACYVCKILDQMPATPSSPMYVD

The target in a further test is T2, TSSK1B (Homo sapiens, UniProt Q9BXA7).
T2 sequence (Q9BXA7 1-367): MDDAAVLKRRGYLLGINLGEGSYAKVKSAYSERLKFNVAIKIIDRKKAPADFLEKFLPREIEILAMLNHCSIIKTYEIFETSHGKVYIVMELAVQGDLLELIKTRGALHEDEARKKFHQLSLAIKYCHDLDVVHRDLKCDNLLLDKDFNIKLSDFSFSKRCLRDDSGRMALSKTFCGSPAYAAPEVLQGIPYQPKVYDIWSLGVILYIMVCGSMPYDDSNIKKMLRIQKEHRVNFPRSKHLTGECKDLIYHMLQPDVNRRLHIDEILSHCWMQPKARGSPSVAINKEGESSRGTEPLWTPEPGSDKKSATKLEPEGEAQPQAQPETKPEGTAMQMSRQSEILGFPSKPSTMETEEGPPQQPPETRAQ

In another test the target is T3, GRK2 (Homo sapiens, UniProt P25098).
T3 sequence (P25098 1-689): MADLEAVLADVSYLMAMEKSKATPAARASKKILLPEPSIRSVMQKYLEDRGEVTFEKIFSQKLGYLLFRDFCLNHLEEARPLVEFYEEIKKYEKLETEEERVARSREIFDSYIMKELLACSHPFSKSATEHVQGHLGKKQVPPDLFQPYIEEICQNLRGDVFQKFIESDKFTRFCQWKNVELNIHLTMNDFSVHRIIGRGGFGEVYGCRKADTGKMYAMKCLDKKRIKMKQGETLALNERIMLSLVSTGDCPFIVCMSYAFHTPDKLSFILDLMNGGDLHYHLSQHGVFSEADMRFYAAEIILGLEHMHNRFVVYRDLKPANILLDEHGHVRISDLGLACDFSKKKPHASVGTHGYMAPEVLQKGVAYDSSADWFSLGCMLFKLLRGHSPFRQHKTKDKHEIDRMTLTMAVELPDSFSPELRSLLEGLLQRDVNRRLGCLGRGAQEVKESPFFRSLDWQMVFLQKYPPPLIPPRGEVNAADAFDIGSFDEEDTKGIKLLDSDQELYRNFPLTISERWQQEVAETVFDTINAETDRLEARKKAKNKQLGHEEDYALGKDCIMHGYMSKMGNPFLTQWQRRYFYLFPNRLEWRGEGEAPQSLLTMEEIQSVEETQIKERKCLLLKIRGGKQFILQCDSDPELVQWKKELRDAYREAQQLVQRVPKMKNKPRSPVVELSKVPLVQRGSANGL

The mark [1] stands for this setting: read-out: Niraparib (MK-4827) / %Ctrl @ 10000nM.
[2] abbreviates: read-out: Talazoparib (BMN 673) / %Ctrl @ 10000nM.
[3] abbreviates: read-out: Rucaparib / %Ctrl @ 10000nM, binding competition, % of control.
Setting [4] is: read-out: Olaparib / %Ctrl @ 10000nM.

Where two headings read alike, the source gives them in different places.

PDGFRA, sequence (P16234 whole entry): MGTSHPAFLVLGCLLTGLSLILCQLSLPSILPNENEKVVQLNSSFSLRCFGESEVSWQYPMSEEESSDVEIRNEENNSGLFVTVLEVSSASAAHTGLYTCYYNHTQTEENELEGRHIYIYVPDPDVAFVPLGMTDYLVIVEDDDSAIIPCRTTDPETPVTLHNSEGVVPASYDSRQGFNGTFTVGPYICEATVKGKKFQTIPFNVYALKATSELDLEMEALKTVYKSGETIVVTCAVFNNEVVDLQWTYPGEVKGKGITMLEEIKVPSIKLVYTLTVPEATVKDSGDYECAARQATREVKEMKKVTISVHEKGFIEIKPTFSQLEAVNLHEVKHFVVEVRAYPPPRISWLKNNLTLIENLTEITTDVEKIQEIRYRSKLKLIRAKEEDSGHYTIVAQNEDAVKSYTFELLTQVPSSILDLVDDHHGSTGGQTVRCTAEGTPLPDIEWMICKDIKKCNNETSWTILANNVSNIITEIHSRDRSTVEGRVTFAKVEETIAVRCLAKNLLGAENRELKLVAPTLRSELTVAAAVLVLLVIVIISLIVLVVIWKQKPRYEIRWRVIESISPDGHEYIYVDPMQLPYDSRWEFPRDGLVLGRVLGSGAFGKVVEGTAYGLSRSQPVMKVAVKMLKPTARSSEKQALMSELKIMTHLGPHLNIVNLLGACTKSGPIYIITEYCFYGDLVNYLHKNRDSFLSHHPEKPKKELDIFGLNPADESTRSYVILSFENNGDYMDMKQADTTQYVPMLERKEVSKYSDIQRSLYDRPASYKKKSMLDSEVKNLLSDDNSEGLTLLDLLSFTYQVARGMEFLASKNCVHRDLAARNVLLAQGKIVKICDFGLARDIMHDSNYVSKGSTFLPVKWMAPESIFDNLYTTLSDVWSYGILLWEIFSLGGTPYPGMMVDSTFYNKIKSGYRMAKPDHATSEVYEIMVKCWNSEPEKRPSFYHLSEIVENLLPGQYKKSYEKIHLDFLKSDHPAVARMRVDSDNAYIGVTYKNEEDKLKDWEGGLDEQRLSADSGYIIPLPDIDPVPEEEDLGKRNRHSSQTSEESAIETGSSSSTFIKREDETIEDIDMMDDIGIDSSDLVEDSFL
MET, sequence (P08581 whole entry): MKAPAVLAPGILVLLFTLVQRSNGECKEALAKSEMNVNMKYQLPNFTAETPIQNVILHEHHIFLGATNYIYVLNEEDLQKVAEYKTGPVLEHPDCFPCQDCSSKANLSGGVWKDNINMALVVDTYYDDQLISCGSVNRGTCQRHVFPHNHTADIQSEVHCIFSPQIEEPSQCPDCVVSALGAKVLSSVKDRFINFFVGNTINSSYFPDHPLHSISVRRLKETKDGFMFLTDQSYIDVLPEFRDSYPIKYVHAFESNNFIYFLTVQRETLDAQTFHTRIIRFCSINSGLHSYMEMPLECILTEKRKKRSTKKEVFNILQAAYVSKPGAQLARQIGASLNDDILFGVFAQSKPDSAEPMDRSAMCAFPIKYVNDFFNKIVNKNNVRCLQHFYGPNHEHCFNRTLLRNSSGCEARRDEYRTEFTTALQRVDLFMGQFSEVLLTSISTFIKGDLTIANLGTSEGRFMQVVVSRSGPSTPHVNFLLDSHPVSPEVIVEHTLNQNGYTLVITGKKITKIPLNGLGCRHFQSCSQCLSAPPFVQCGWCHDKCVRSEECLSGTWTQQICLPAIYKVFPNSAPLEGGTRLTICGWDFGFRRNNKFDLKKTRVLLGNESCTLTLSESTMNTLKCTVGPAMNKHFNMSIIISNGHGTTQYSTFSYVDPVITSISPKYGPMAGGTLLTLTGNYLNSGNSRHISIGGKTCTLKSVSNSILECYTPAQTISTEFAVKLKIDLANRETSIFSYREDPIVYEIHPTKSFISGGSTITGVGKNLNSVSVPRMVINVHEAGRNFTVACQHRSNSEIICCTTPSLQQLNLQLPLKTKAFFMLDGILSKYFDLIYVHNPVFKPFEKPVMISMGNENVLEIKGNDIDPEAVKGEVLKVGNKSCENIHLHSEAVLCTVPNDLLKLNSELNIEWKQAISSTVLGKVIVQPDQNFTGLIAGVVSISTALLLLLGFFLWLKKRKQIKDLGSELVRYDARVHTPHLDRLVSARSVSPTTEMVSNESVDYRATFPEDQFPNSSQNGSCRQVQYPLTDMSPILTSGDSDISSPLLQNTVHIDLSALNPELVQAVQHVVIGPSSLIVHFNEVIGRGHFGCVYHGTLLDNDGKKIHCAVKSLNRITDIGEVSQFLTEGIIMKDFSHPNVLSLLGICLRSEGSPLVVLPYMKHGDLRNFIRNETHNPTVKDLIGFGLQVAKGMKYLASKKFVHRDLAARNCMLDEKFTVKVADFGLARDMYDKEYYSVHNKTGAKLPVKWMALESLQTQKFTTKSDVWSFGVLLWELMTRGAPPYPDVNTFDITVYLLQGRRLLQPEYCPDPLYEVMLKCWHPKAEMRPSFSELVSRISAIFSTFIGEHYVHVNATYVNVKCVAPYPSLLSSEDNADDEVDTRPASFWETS
CDK5, sequence (Q00535 whole entry): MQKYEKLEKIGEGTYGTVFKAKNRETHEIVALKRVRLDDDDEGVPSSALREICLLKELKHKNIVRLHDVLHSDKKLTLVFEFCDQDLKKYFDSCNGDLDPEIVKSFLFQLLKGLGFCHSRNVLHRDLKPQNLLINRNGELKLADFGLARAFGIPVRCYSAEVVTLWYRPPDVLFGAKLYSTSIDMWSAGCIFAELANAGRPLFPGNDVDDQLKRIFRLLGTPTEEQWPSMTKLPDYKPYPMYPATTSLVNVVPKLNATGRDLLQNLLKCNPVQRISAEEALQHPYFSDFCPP
ERBB3, sequence (P21860 whole entry): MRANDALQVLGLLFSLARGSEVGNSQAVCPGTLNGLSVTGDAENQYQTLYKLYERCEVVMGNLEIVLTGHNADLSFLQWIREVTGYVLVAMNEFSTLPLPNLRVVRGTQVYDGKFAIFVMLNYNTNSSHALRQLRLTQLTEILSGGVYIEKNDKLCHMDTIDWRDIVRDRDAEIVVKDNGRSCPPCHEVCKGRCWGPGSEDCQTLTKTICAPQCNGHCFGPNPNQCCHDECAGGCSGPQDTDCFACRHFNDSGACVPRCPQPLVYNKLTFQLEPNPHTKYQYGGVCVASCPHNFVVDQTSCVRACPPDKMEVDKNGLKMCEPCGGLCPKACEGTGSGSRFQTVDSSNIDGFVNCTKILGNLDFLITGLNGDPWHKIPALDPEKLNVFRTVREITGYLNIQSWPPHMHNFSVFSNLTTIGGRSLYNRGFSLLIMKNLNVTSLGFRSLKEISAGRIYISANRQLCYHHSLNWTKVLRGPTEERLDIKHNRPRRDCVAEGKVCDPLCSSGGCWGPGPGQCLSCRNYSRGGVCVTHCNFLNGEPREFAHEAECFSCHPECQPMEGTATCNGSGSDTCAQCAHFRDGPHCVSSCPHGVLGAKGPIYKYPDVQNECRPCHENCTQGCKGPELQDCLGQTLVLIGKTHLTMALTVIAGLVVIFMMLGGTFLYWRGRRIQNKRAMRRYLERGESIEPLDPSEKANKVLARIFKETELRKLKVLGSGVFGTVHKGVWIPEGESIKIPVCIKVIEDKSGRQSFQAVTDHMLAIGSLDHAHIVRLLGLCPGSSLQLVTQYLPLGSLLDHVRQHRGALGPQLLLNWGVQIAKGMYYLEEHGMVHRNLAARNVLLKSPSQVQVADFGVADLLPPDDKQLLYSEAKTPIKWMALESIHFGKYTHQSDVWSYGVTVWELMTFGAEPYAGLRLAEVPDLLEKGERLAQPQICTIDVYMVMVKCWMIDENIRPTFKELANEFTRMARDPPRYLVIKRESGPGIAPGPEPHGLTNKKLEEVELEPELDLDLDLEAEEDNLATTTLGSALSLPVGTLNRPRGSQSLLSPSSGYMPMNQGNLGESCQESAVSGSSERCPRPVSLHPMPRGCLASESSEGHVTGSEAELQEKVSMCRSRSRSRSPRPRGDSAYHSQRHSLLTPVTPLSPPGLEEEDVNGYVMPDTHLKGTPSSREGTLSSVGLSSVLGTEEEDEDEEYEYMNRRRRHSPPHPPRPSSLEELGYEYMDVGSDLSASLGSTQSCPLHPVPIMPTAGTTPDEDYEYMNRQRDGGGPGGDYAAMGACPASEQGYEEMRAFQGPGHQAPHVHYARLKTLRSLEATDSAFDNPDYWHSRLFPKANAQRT
FGFR2, sequence (P21802 whole entry): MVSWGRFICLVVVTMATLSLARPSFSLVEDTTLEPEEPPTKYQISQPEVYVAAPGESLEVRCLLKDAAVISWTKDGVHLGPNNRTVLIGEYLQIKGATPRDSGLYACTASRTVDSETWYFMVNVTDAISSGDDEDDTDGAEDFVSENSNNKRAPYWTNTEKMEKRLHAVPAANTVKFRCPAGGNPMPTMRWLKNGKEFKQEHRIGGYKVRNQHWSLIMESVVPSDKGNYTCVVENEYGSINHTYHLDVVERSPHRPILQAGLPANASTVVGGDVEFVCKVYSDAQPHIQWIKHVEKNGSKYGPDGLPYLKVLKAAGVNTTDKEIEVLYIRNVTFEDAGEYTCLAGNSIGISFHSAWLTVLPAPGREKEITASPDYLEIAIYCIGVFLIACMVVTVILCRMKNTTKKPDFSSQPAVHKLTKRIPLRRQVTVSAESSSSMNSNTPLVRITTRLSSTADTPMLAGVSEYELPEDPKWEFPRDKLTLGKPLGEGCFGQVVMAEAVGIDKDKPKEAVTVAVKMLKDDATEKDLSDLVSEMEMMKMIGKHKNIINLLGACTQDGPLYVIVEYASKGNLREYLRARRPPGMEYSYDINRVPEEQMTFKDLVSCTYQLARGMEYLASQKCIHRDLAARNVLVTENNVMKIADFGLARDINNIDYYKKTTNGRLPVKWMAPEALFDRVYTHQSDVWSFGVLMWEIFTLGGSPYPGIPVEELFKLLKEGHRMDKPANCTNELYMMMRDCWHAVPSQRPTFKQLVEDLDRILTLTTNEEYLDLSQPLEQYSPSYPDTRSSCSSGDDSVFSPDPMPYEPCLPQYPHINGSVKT

In the case of `NC(=O)c1cccc2cn(-c3ccc([C@@H]4CCCNC4)cc3)nc12` [Niraparib], the percent of control binding at 10 µM at PDGFRA (setting [1]) is 69%; on PIM3 (setting [1]), 17%; at MET (setting [1]) it was 92%; at PIK3CA(Q546K) (setting [1]), 100%; at PIKFYVE (setting [1]), 75%; at FGFR2 (setting [1]), 100%. Further, the percent of control binding at 10 µM on CDK5 (setting [1]) amounted to 90%; on MEK4 (setting [1]), 82%; at TSSK1B (setting [1]), 65%; on GRK2 (setting [1]), 97%; on ERBB3 (setting [1]) it was 100%.
As to `Cn1ncnc1[C@H]1c2n[nH]c(=O)c3cc(F)cc(c23)N[C@@H]1c1ccc(F)cc1` [Talazoparib], the percent of control binding at 10 µM at PDGFRA (setting [2]) worked out at 99%; at PIM3 (setting [2]) it was 100%; on MET (setting [2]) it was 99%; at PIK3CA(Q546K) (setting [2]), 100%; on PIKFYVE (setting [2]), 80%; at FGFR2 (setting [2]), 100%. Further, the percent of control binding at 10 µM was 98% on CDK5 (setting [2]); 99% at MEK4 (setting [2]); 94% on TSSK1B (setting [2]); 100% on GRK2 (setting [2]); 100% on ERBB3 (setting [2]).
As to `CNCc1ccc(-c2[nH]c3cc(F)cc4c3c2CCNC4=O)cc1` [Rucaparib], the percent of control binding at 10 µM at PDGFRA (setting [3]) came to 53%; on MET (setting [3]), 92%; at PIK3CA(Q546K) (setting [3]), 93%; on PIKFYVE (setting [3]) it was 92%; at FGFR2 (setting [3]) it was 99%; on CDK5 (setting [3]), 88%. For the same molecule, the percent of control binding at 10 µM at MEK4 (setting [3]) is 69%; on TSSK1B (setting [3]), 88%; at GRK2 (setting [3]), 70%; on ERBB3 (setting [3]), 74%.
For the molecule `O=C(c1cc(Cc2n[nH]c(=O)c3ccccc23)ccc1F)N1CCN(C(=O)C2CC2)CC1` [Olaparib], the percent of control binding at 10 µM at PDGFRA (setting [4]) worked out at 75%; at PIM3 (setting [4]), 99%; on MET (setting [4]), 91%; at PIK3CA(Q546K) (setting [4]) it was 90%; at PIKFYVE (setting [4]), 100%; on FGFR2 (setting [4]) it was 100%. The percent of control binding at 10 µM at CDK5 (setting [4]) was 95%; on MEK4 (setting [4]), 80%; on TSSK1B (setting [4]), 100%; on GRK2 (setting [4]), 79%; at ERBB3 (setting [4]), 83%.

The values above are taken from paper PMC7026418, “The kinase polypharmacology landscape of clinical PARP inhibitors” (Scientific Reports, 2020).
